# Test system: rats (NAc infusion)
# Experiment: swim test scores during bilateral fluoxetine infusion in the NAc
# Format: in vivo, rat
compound,measurement,setting,value
CNCCC(Oc1ccc(C(F)(F)F)cc1)c1ccccc1 (centres unmarked) [Fluoxetine],"Swimming + Climbing (total escape attempts), FLU","0.2 mM bilateral in NAc, fluoxetine on Day 2 (Ringer Day 3)",54 ± 30
same,"Swimming + Climbing (total escape attempts), FLU","0.2 mM bilateral in NAc, fluoxetine on Day 3 (Ringer Day 2)",74 ± 13
same,"Swimming + Climbing (total escape attempts), FLU","0.2 mM bilateral in NAc, on Day 2 or Day 3 (combined)",66 ± 12
same,"Swimming + Climbing (total escape attempts), FLU","0.5 mM bilateral in NAc, fluoxetine on Day 2 (Ringer Day 3)",51 ± 9
same,"Swimming + Climbing (total escape attempts), FLU","0.5 mM bilateral in NAc, fluoxetine on Day 3 (Ringer Day 2)",81 ± 9
same,"Swimming + Climbing (total escape attempts), FLU","0.75 mM bilateral in NAc, fluoxetine on Day 2 (Ringer Day 3)",58 ± 11
same,"Swimming + Climbing (total escape attempts), FLU","0.75 mM bilateral in NAc, fluoxetine on Day 3 (Ringer Day 2)",73 ± 11
same,"Swimming + Climbing (total escape attempts), FLU","0.75 mM bilateral in NAc, on Day 2 or Day 3 (combined)",67 ± 7
